In patent US20110098492A1, “CLEANING COMPOSITIONS CONTAINING MID-RANGE ALKOXYLATES” (priority 2008, published 2011):

Experiments:
[1] = Cleaning of cross-linked petroleum grease (1-octadecene soil); settings: for Arbitrary Gray Value: 1% by weight in water, cross-linked 1-octadecene soil
Excerpt: The same procedure used above for cross-linked triglycerides was used, except that 1-octadecene was used instead of Canola Oil.

[2] = Surface tension and critical micelle concentration (Wilhelmy plate); format: physicochemical
Experimental: B) Surface Tension and Critical Micelle Concentration (CMC) Measurement. For this test the surface tension of a surfactant-water solution is measured while incrementally adding the surfactant to de-ionized water. Results are measured in terms of dyne/centimeters using a Wilhelmy plate. Results are recorded versus surfactant concentration. The Critical Micelle Concentration is the point at which an increase in surfactant concentration no longer results in a change in surface tension.

[3] = Ross-Miles foam height test (ASTM D1173); format: physicochemical; settings: for Ross Miles Foam Height, millimeters, Initial: Initial (0 sec)
Experimental: A) Ross-Miles Foam Height Test: This test is carried out according to the protocol of ASTM […].

[4] = Pour point test (ASTM D97); format: physicochemical
Experimental: C) Pour Point Test: This test is carried out according to the protocol of ASTM Test D97.

[5] = Gel range in water at 23 C; format: physicochemical; design: key: L = Liquid; G = Gel; TL = Thick Liquid
Experimental: One way the industry expresses a tendency of a surfactant to cause gels is a “gel range.” A typical gel range describes a percentage of samples that form gels, out of a number of samples, each having increasing surfactant concentration. […] A sample forms a gel when it is non-pourable for at least five seconds at 23° centigrade (° C.) when its container is inverted 180° so the container's open spout or mouth faces down. For many applications, a surfactant ideally has no gel range.
D) Gel range: Ten surfactant solutions are made using 0%, 10%, 20%, 30%, 40%, 50%, 60%, 70%, 80%, 90% water. […] The test is run at 23 C.

[6] = background statement on commercial surfactants; cited from earlier work
[7] = Cleaning of cross-linked triglycerides (Gardner scrubber, soiled vinyl tile); design: key to Arbitrary Gray Value: mean gray value of tile image (ImageJ); settings: 120 back-and-forth strokes, higher = better cleaning
Experimental: Test panels coated with mixtures of triglycerides and cross-linked triglycerides were prepared and evaluated using the following procedure. Cobalt Naphthenate was used as a catalyst to accelerate the oxidation of vegetable oil to give a hard varnish. Carbon black is added to the varnish to enable easy visual comparison of the ability to clean the cross-linked triglyceride from the surface.
Substrate Panels: White Vinyl Floor Tile: Tarket Corporation Azrock™ VS304-3 (6913) cut to 4¼×4¼ inch (to fit the Gardner Linear Motion Scrubber).
Soil Formulation: 100 grams Canola Oil (Food Grade, 100%, Kroger Co. Cincinnati, Ohio 45202); 2 grams Acetylene Carbon Black (Cat #39724, Alfa Aesar; Surface area=74 sq m/g); 20 grams drying agent: Cobalt Naphthenate Solution (Aldrich Cat #54,457-4, CAS #61789-51-3) (Comes as a 6% solution in petroleum solvent); Oven: Convection oven set at 160° F.
Scrubbing Tester: Gardco washability & Wear Tester; Linear Motion Test Equipment; Model D12-V Cat #WA-2164 (Paul N. Gardner Company, Inc. 316 N.E. First Street, Pompano, Beach, Fla. 33060.
Sponges: “Do-It” Cellulose Sponge, 1⅝ in thick, cut to 3″×4″. Manufactured by Bloch/New England for HWI, Fort Wayne, Ind. 46801;
Paint Brushes: Economy Chip Brush 1 Inch. www.lgsourcing.com Model #0106; Item #103407 obtained from Lowes, Inc. L. G. Sourcing, Inc. P.O. Box 1535 North Wilkseboro, N.C. 28659
Reflectance Meter: HunterLab ColorQuest XE
Prepare a stock solution by mixing 98 grams of canola oil (food grade) with 2.0 g acetylene-based carbon black (Cat #39724, Alfa Aesar; Surface area=74 sq m/g). Mix with a disperser at 2000 rpm for 15 min. (We used a Caframo Model BDC 3030 with a 0.50 dispersing blade).
Add 20.0 grams Cobalt Naphthenate Solution and mix well (by hand, using a glass stir rod).
Place 1.6 grams soil per 4×4 inch tile.
Paint to a thin film using a clean 1-inch economy brush. Use several strokes to get to an even coating. Use a clean, dry brush for each application. (After the application, each brush can be cleaned with acetone, dried, and then re-used).
Place in a convection oven set at 160 F for 16 hours. We place the panels in an oven at 4:00 p.m, and then remove the panels at 8:00 a.m. the next morning. Let the panels cool for 1 hour.
Use the panels within 10 days
Place a panel in the Gardner Scrubber
[…] (We use 5.0 grams surfactant diluted to 500 mL water).
Prepare a sponge by rinsing several times in cold tap water. Completely squeeze out the sponge by hand.
After each test, rinse out the sponge 15-20 times (by repeated sorption and squeezing) until there is no noticeable surfactant solution left (usually indicated by a lack of foam).
Pour 500 mL of surfactant solution into a beaker
Place the sponge into the beaker—allowing it to soak up as much surfactant as possible.
Place the sponge into the Gardner Scrubber.
Pour the remaining liquid (approx 400 mL) over the test panel in the scrubber. There should be enough liquid to just cover the test panel.
Program the scrubber to perform 120 back-and-forth strokes (for a total of 240 linear strokes). We define each back-and-forth stroke as “1 stroke”
Remove the panel rinse with tap water
Clean the Gardner scrubber by rinsing with tap water.
Clean the sponge by squeezing it out under tap water 20-30 times until clean.
Remove excess water from the sponge by squeezing as much liquid out as possible.
After the panel is dry, either take pictures (for visual comparison of cleaning) or measure the reflectance using the Xyy mode of a Hunter Colorimeter. Alternatively, the mean gray value can be obtained by taking a picture of the tiles and processing computer image with ImageJ™ software, which is distributed freely by the National Institute of Health (nih.gov).

[8] = Formula stability with LAS, sodium citrate and water; format: physicochemical; design: key to Formula stability: S = Stable; U = Unstable
Excerpt: When mixed with dodecyl benzene sulfonic acid (sodium salt), and sodium citrate in water, the surfactants of the present invention show enhanced formula stability relative to conventional surfactants.

| Ross Miles Foam Height, millimeters, 5 Minutes [3] [millimeters] | Ross Miles Foam Height, millimeters, Initial [3] [millimeters] | Pour Point [4] [° F.] | Gel Range, Percent Surfactant in Water at 23 C. ([5]; 10% surfactant in water) | Gel Range, Percent Surfactant in Water at 23 C. ([5]; 20% surfactant in water) | Gel Range, Percent Surfactant in Water at 23 C. ([5]; 30% surfactant in water) | Gel Range, Percent Surfactant in Water at 23 C. ([5]; 40% surfactant in water) | Gel Range, Percent Surfactant in Water at 23 C. ([5]; 50% surfactant in water) | Gel Range, Percent Surfactant in Water at 23 C. ([5]; 60% surfactant in water) | Gel Range, Percent Surfactant in Water at 23 C. ([5]; 70% surfactant in water) | Gel Range, Percent Surfactant in Water at 23 C. ([5]; 80% surfactant in water) | Gel Range, Percent Surfactant in Water at 23 C. ([5]; 90% surfactant in water) | Substance | Arbitrary Gray Value [1] | other results |
| --- | --- | --- | --- | --- | --- | --- | --- | --- | --- | --- | --- | --- | --- | --- |
| 0 | 45 | 44 | L | L | L | L | L | L | L | TL | L | 2EH(PO)5.5(EO)8 [Example 3] | 136 | cleaning of cross-linked 1-octadecene / mineral oil (in words) ([1]; compared with Tergitol NP-9): equivalent to Tergitol NP-9; Surface Tension ([2]; 0.1 wt % in water): 31 dyne/centimeters; Critical Micelle Concentration ([2]; in de-ionized water): 1750 ppm |
| 35 | 145 | 30 | L | L | L | L | L | G | G | G | L | nonylphenoxy (polyoxyethylene-9) [NP-9, reference compound] | 95 | gel formation / gel range when mixed with water (in words) [6]: forms resilient, slow-dissolving gels; Arbitrary Gray Value ([7]; 0.5% by weight in water): 108; Arbitrary Gray Value ([7]; 1% by weight in water): 177; Formula stability ([8]; 15% LAS/0% Na Cit in water): U; Formula stability ([8]; 15% LAS/1% Na Cit in water): U; Formula stability ([8]; 15% LAS/2% Na Cit in water): U; Formula stability ([8]; 15% LAS/4% Na Cit in water): U |
